# From patent US20240261224A1, “FORMULATION OF A PAN-JAK INHIBITOR” (KINASET THERAPEUTICS, INC., priority 2022, published 2024)
# Where two headings read alike, the source gives them in different places.
# Legend:
# [1] = Phase 1 Part 2 plasma pharmacokinetics (mild asthma); type: in vivo, human; settings: human, plasma, inhaled
# Source text: (§1) Day 10 pharmacokinetic parameters for Parts 2 and 3 of Phase I are summarized below in Table 28. Part 2 involved the administration of 4 different dose regimens, to subjects with mild asthma naïve to ICS therapy, over a 10-day period. Each separate cohort comprised 6 subjects receiving active treatment with 2 receiving matching placebo. Blood samples were collected to enable the measurement of Compound I concentrations in plasma. The resultant data was used to determine the PK parameters at Day 10 representing the Day on which the final dose was received.
# [2] = system: fractional exhaled nitric oxide (FeNO); assay: Phase 1 Part 2: FeNO reduction in ICS-naïve mild asthmatics; type: in vivo, human; settings: for Mean placebo-corrected FeNO reduction: mild asthma ICS naïve
# Description: A status summary of the phase 1 clinical trial recruitment is shown below in Table 18. Capsules filled with blend 2a were used to achieve a 0.6 mg target dose of Compound I (0.2 mg capsules×3). Capsules filled with blend 4 were used to achieve 2.0 mg, 4.0 mg, 6.0 mg, 8.0 mg, and 12.0 mg target doses of Compound I (2.0 mg capsule×1; 4.0 mg capsule×1; 2.0 mg capsules×3; 4.0 mg capsules×2; and 4.0 mg capsules×3, respectively). Twice daily dosing (BID) was achieved by repeating the preceding regime. For example, an 8.0 mg BID dosing regime is achieved by administering two doses of 4.0 mg capsules×2.
# Particular FeNO reduction data from FIG. 5 is highlighted below in Table 19. For comparison, it is established that FeNO reductions greater than 20% are clinically significant (Am. J. Respir. Crit. Care Med. 2011, 184, 602).
# as §1
smiles,measurement,setting,value
"Cn1c(=O)n([C@H]2CCCN(C(=O)CC#N)C2)c2nc(-c3cnn4ccccc34)ccc21 [Compound I, (S)-3-(3-(1-methyl-2-oxo-5-(pyrazolo[1,5-a]pyridine-3-yl)-1H-imidazo[4,5-b]pyridine-3(2H)-yl)piperidin-1-yl)-3-oxopropanenitrile]",AUC0-12h,"[1]; 0.6 mg, 0.6 mg QD, Day 10, read-out: AUC0-12 hours Geometric mean",14.9 ng·h/mL
same,AUC0-12h,"[1]; 0.6 mg, 0.6 mg QD, Day 10, read-out: AUC0-12 hours Mean",16.1 ng·h/mL
same,AUC(0-t),"[1]; 0.6 mg, 0.6 mg QD, Day 10, read-out: AUC0-24 hours Geometric mean",20.3 ng·h/mL
same,AUC(0-t),"[1]; 0.6 mg, 0.6 mg QD, Day 10, read-out: AUC0-24 hours Mean",22.5 ng·h/mL
same,AUC(0-t),"[1]; 0.6 mg, 0.6 mg QD, Day 10, read-out: AUC0-last non-zero Geometric mean",23.4 ng·h/mL
same,AUC(0-t),"[1]; 0.6 mg, 0.6 mg QD, Day 10, read-out: AUC0-last non-zero Mean",26.7 ng·h/mL
same,AUC(0-inf),"[1]; 0.6 mg, 0.6 mg QD, Day 10, read-out: AUC0-∞ Geometric mean",24.3 ng·h/mL
same,AUC(0-inf),"[1]; 0.6 mg, 0.6 mg QD, Day 10, read-out: AUC0-∞ Mean",28 ng·h/mL
same,AUC,"[1]; 0.6 mg, 0.6 mg QD, Day 10, read-out: AUCover dosing interval Geometric mean",20.3 ng·h/mL
same,AUC,"[1]; 0.6 mg, 0.6 mg QD, Day 10, read-out: AUCover dosing interval Mean",22.5 ng·h/mL
same,Cmax,"[1]; 0.6 mg, 0.6 mg QD, Day 10, read-out: Cmax Geometric mean",1.86 ng/mL
same,Cmax,"[1]; 0.6 mg, 0.6 mg QD, Day 10, read-out: Cmax Mean",1.97 ng/mL
same,AUC0-12h,"[1]; 2 mg, 2 mg QD, Day 10, read-out: AUC0-12 hours Geometric mean",51.9 ng·h/mL
same,AUC0-12h,"[1]; 2 mg, 2 mg QD, Day 10, read-out: AUC0-12 hours Mean",55.2 ng·h/mL
same,AUC(0-t),"[1]; 2 mg, 2 mg QD, Day 10, read-out: AUC0-24 hours Geometric mean",71.9 ng·h/mL
same,AUC(0-t),"[1]; 2 mg, 2 mg QD, Day 10, read-out: AUC0-24 hours Mean",76.4 ng·h/mL
same,AUC(0-t),"[1]; 2 mg, 2 mg QD, Day 10, read-out: AUC0-last non-zero Geometric mean",82.2 ng·h/mL
same,AUC(0-t),"[1]; 2 mg, 2 mg QD, Day 10, read-out: AUC0-last non-zero Mean",87.4 ng·h/mL
same,AUC(0-inf),"[1]; 2 mg, 2 mg QD, Day 10, read-out: AUC0-∞ Geometric mean",83.9 ng·h/mL
same,AUC(0-inf),"[1]; 2 mg, 2 mg QD, Day 10, read-out: AUC0-∞ Mean",89.2 ng·h/mL
same,AUC,"[1]; 2 mg, 2 mg QD, Day 10, read-out: AUCover dosing interval Geometric mean",71.9 ng·h/mL
same,AUC,"[1]; 2 mg, 2 mg QD, Day 10, read-out: AUCover dosing interval Mean",76.4 ng·h/mL
same,Cmax,"[1]; 2 mg, 2 mg QD, Day 10, read-out: Cmax Geometric mean",6.19 ng/mL
same,Cmax,"[1]; 2 mg, 2 mg QD, Day 10, read-out: Cmax Mean",6.46 ng/mL
same,AUC0-12h,"[1]; 4 mg, 4 mg BID, Day 10, read-out: AUC0-12 hours Geometric mean",194 ng·h/mL
same,AUC0-12h,"[1]; 4 mg, 4 mg BID, Day 10, read-out: AUC0-12 hours Mean",237 ng·h/mL
same,AUC(0-t),"[1]; 4 mg, 4 mg BID, Day 10, read-out: AUC0-24 hours Geometric mean",241 ng·h/mL
same,AUC(0-t),"[1]; 4 mg, 4 mg BID, Day 10, read-out: AUC0-24 hours Mean",299 ng·h/mL
same,AUC(0-t),"[1]; 4 mg, 4 mg BID, Day 10, read-out: AUC0-last non-zero Geometric mean",278 ng·h/mL
same,AUC(0-t),"[1]; 4 mg, 4 mg BID, Day 10, read-out: AUC0-last non-zero Mean",355 ng·h/mL
same,AUC(0-inf),"[1]; 4 mg, 4 mg BID, Day 10, read-out: AUC0-∞ Geometric mean",282 ng·h/mL
same,AUC(0-inf),"[1]; 4 mg, 4 mg BID, Day 10, read-out: AUC0-∞ Mean",359 ng·h/mL
same,AUC,"[1]; 4 mg, 4 mg BID, Day 10, read-out: AUCover dosing interval Geometric mean",194 ng·h/mL
same,AUC,"[1]; 4 mg, 4 mg BID, Day 10, read-out: AUCover dosing interval Mean",237 ng·h/mL
same,Cmax,"[1]; 4 mg, 4 mg BID, Day 10, read-out: Cmax Geometric mean",26.8 ng/mL
same,Cmax,"[1]; 4 mg, 4 mg BID, Day 10, read-out: Cmax Mean",31.5 ng/mL
same,AUC0-12h,"[1]; 8 mg, 8 mg BID, Day 10, read-out: AUC0-12 hours Geometric mean",418 ng·h/mL
same,AUC0-12h,"[1]; 8 mg, 8 mg BID, Day 10, read-out: AUC0-12 hours Mean",458 ng·h/mL
same,AUC(0-t),"[1]; 8 mg, 8 mg BID, Day 10, read-out: AUC0-24 hours Geometric mean",545 ng·h/mL
same,AUC(0-t),"[1]; 8 mg, 8 mg BID, Day 10, read-out: AUC0-24 hours Mean",612 ng·h/mL
same,AUC(0-t),"[1]; 8 mg, 8 mg BID, Day 10, read-out: AUC0-last non-zero Geometric mean",662 ng·h/mL
same,AUC(0-t),"[1]; 8 mg, 8 mg BID, Day 10, read-out: AUC0-last non-zero Mean",745 ng·h/mL
same,AUC(0-inf),"[1]; 8 mg, 8 mg BID, Day 10, read-out: AUC0-∞ Geometric mean",664 ng·h/mL
same,AUC(0-inf),"[1]; 8 mg, 8 mg BID, Day 10, read-out: AUC0-∞ Mean",747 ng·h/mL
same,AUC,"[1]; 8 mg, 8 mg BID, Day 10, read-out: AUCover dosing interval Geometric mean",418 ng·h/mL
same,AUC,"[1]; 8 mg, 8 mg BID, Day 10, read-out: AUCover dosing interval Mean",458 ng·h/mL
same,Cmax,"[1]; 8 mg, 8 mg BID, Day 10, read-out: Cmax Geometric mean",57.7 ng/mL
same,Cmax,"[1]; 8 mg, 8 mg BID, Day 10, read-out: Cmax Mean",60.4 ng/mL
same,Pharmacological activity of dose regimen (FeNO),[2]; 0.6 mg QD,minimally active dose
same,% subjects reporting Day 10 FeNO value <25 ppb,[2]; 0.6 mg QD (n = 6),16%
same,Mean placebo-corrected % FeNO reduction from day 1 pre-dose in ICS naïve mild asthmatics,"[2]; 0.6 mg QD (n = 6), Day 10 + 3 hrs",−5.4%
same,Mean placebo-corrected % FeNO reduction from day 1 pre-dose in ICS naïve mild asthmatics,"[2]; 0.6 mg QD (n = 6), Day 10 + 6 hrs",−6.7%
same,Mean placebo-corrected FeNO reduction,"[2]; 0.6 mg QD, 3 capsules per dose",−7%
same,Mean placebo-corrected FeNO changes,"[2]; 0.6 mg QD, Day 1 pre-dose to Day 10",< 20%
same,% subjects reporting Day 10 FeNO value <25 ppb,[2]; 2.0 mg QD (n = 6),16%
same,Mean placebo-corrected % FeNO reduction from day 1 pre-dose in ICS naïve mild asthmatics,"[2]; 2.0 mg QD (n = 6), Day 10 + 3 hrs",−26.6%
same,Mean placebo-corrected % FeNO reduction from day 1 pre-dose in ICS naïve mild asthmatics,"[2]; 2.0 mg QD (n = 6), Day 10 + 6 hrs",−24.0%
same,Mean placebo-corrected FeNO reduction,"[2]; 2.0 mg QD, 1 capsule per dose",−24%
same,% subjects reporting Day 10 FeNO value <25 ppb,[2]; 4.0 mg BID (n = 6),67%
same,Mean placebo-corrected % FeNO reduction from day 1 pre-dose in ICS naïve mild asthmatics,"[2]; 4.0 mg BID (n = 6), Day 10 + 3 hrs",−29.1%
same,Mean placebo-corrected % FeNO reduction from day 1 pre-dose in ICS naïve mild asthmatics,"[2]; 4.0 mg BID (n = 6), Day 10 + 6 hrs",−30.6%
same,Mean placebo-corrected FeNO reduction,"[2]; 4.0 mg BID, 1 capsule per dose",−26%
same,Mean placebo-corrected % FeNO reduction from Day 1 pre-dose,"[2]; 4.0 mg BID, Day 10 + 3 hours",29.1%
same,Mean placebo-corrected % FeNO reduction from Day 1 pre-dose,"[2]; 4.0 mg BID, Day 10 + 6 hours",30.6%
same,% subjects reporting Day 10 FeNO value <25 ppb,[2]; 8.0 mg BID (n = 6),50%
same,Mean placebo-corrected % FeNO reduction from day 1 pre-dose in ICS naïve mild asthmatics,"[2]; 8.0 mg BID (n = 6), Day 10 + 3 hrs",−29.1%
same,Mean placebo-corrected % FeNO reduction from day 1 pre-dose in ICS naïve mild asthmatics,"[2]; 8.0 mg BID (n = 6), Day 10 + 6 hrs",−25.9%
same,Pharmacological activity of dose regimens (FeNO),[2]; dose regimens from 2 mg QD to 8 mg BID,pharmacologically active
